# Assay results: patent US20120004282A1, “RNA Interference Mediated Inhibition of the Intercellular Adhesion Molecule 1 (ICAM-1) Gene Expression Using Short Interfering Nucleic Acid (siNA)” (Merck Sharp & Dohme Corp,, priority 2009, published 2012)
# [invAb] = inverted abasic unit; m = 2'-O-methyl; r = 2'-OH (RNA); f = 2'-fluoro
# Tested on: ICAM-1 mRNA
# Experiment: ICAM-1 mRNA knock-down in transfected Calu-1 cells (Taqman RT-PCR)
# Assay type: cell-based, human
# Conditions: for % KD Human: Calu-1 cells, 10 nM siNA, 24 hrs post-transfection, relative to non-targeting control; for % KD Human / % KD ICAM-1 10 nM / % KD at 10 nM / Max % KD in DRC: mean ± S.D.; for IC50: ICAM-1 mRNA knockdown, 12 concentrations 0.083 fM to 30 nM; for IC50 / % KD at 10 nM / Max % KD in DRC: human cells; for % KD ICAM-1 10 nM / % KD at 10 nM / Max % KD in DRC: ICAM-1 mRNA; for % KD ICAM-1 10 nM: three independent experiments; for % KD at 10 nM: three separate experiments; for Max % KD in DRC: dose response 0.083 fM to 30 nM
Substance,% KD Human [%],IC50 [nM],% KD ICAM-1 10 nM [%],% KD at 10 nM [%],Max % KD in DRC [%]
"29284-DC: siNA duplex, ICAM-1 target site 1141 (h); sense B cucAGucAGuGuGAccGcA TTB; antisense UGCGGucAcAcuGAcuGAGUU (sense CUCAGUCAGUGUGACCGCATT; antisense UGCGGUCACACUGACUGAGUU; sense: DNA at AGT, 2'-fluoro at CU, [invAb] at 5' end, 3' end, backbone not given here; antisense: sugars from the 5' end rrrmmffmfmffmmffmmmmm, backbone not given here)",85 ± 1,0.281 ± 0.233,85 ± 1,85 ± 1,73 ± 4
"29288-DC: siNA duplex, ICAM-1 target site 2046 (h); sense B cAuuGuccucAGucAGAuA TTB; antisense UAUcuGAcuGAGGAcAAuGUU (sense CAUUGUCCUCAGUCAGAUATT; antisense UAUCUGACUGAGGACAAUGUU; sense: DNA at AGT, 2'-fluoro at CU, [invAb] at 5' end, 3' end, backbone not given here; antisense: sugars from the 5' end rrrffmmffmmmmrfmmfmmm, backbone not given here)",86 ± 3,0.215 ± 0.129,86 ± 3,86 ± 3,78 ± 5
"29285-DC: siNA duplex, ICAM-1 target site 537 (h); sense B GGAAcAAccGGAAGGuGuA TTB; antisense UACAccuuccGGuuGuuccUU (sense GGAACAACCGGAAGGUGUATT; antisense UACACCUUCCGGUUGUUCCUU; sense: DNA at AGT, 2'-fluoro at CU, [invAb] at 5' end, 3' end, backbone not given here; antisense: sugars from the 5' end rrrmffffffmmffmffffmm, backbone not given here)",85 ± 6,0.394,85 ± 6,85 ± 6,70 ± 15
"29286-DC: siNA duplex, ICAM-1 target site 1838 (h); sense B cGGAAGAucAAGAAAuAcA TTB; antisense UGUAuuucuuGAucuuccGUU (sense CGGAAGAUCAAGAAAUACATT; antisense UGUAUUUCUUGAUCUUCCGUU; sense: DNA at AGT, 2'-fluoro at CU, [invAb] at 5' end, 3' end, backbone not given here; antisense: sugars from the 5' end rrrmffffffmmffffffmmm, backbone not given here)",89 ± 3,0.433 ± 0.468,89 ± 3,89 ± 3,81 ± 6
"48722-DC: siNA duplex, ICAM-1 target site 2240 (h); sense B GAcAuAcAAcuGGGAAAuA TTB; antisense UAUuucccAGuuGuAuGucUU (sense GACAUACAACUGGGAAAUATT; antisense UAUUUCCCAGUUGUAUGUCUU; sense: DNA at AGT, 2'-fluoro at CU, [invAb] at 5' end, 3' end, backbone not given here; antisense: sugars from the 5' end rrrfffffmmffmfmfmffmm, backbone not given here)",92 ± 1,0.098 ± 0.05,92 ± 1,92 ± 1,85 ± 1
"29282-DC: siNA duplex, ICAM-1 target site 2113 (h); sense B cGcAucuGAucuGuAGucA TTB; antisense UGAcuAcAGAucAGAuGcGUU (sense CGCAUCUGAUCUGUAGUCATT; antisense UGACUACAGAUCAGAUGCGUU; sense: DNA at AGT, 2'-fluoro at CU, [invAb] at 5' end, 3' end, backbone not given here; antisense: sugars from the 5' end rrrffmfmmmffmmmfmfmmm, backbone not given here)",95 ± 2,0.086 ± 0.047,95 ± 2,95 ± 2,88 ± 4
